Laboratory results reported in patent US11414431B2, “Substituted pyrazolo[1,5-a]pyrimidines as TYK2 inhibitors” (Nimbus Lakshmi, Inc., priority 2018, dated 2022).

Test system: IL-12 induced STAT4 phosphorlyation mediated by TYK2/JAK2
Experiment: IL-12 Induced pSTAT4 in Human PBMC
Format: cell-based
Details: 1.7 ng/mL IL-12 for 30 minutes
Procedure: Human PBMC were isolated from buffy coat and are stored frozen for assays as needed. […] 15 μL of compound or DMSO was added to the well at the desired concentrations and incubated at 1 hr at 37° C. 15 μL of stimulus (final concentration of 1.7 ng/mL IL-12) was added for 30 minutes prior to pSTAT4 and total STAT4 analysis using cell lysates prepared and analyzed by MSD reagents as per manufacturer protocol. The final DMSO concentration of compound in the assay was 0.1%.
The IL-12 induced pSTAT4 assay evaluates the inhibition of IL-12 induced STAT4 phosphorlyation mediated by TYK2/JAK2 (heterpdimeric complex).

SMILES | IC50 [µM]
CNc1cc(Nc2cccn([C@H]3C[C@@H]3F)c2=O)nc2c(C(=O)N[C@@H]3C[C@H]3OC)cnn12 [Compound I-133] | < 0.1
CNc1cc(-c2cn([C@@H]3CCOC[C@@H]3OC)c3ncccc23)nc2c(C(=O)NC3CC[C@@H]3OC)cnn12 (stereo partly drawn) [Compound I-668] | < 0.1
CNc1cc(-c2cn([C@@H]3CC3(F)F)c3ncccc23)nc2c(C(=O)NC3CC[C@H]3O)cnn12 (stereo partly drawn) [Compound I-548] | < 0.1
CNc1cc(Nc2cccn([C@@H]3CCC[C@H](C#N)C3)c2=O)nc2c(C(=O)N[C@@H]3CC[C@H]3OC)cnn12 [Compound I-260] | < 0.1
CNc1cc(Nc2cccn([C@H]3[C@@H]4COC[C@@H]43)c2=O)nc2c(C(=O)NC3CCC3(F)F)cnn12 (stereo partly drawn) [Compound I-306] | < 0.1
CNc1cc(-c2cn([C@H]3CCN(C)C3)c3ncccc23)nc2c(C(=O)N[C@H]3CC[C@@H]3OC)cnn12 [Compound I-619] | < 0.1
CNc1cc(-c2cnc3n([C@@H]4COC[C@H]4O)cccc2-3)nc2c(C(=O)N[C@H]3CC[C@@H]3F)cnn12 [Compound I-830] | < 0.1
CNc1cc(Nc2cccn([C@@H]3CCC[C@@H]3O)c2=O)nc2c(C(=O)N[C@@H]3CCC3(F)F)cnn12 [Compound I-305] | < 0.1
CNc1cc(Nc2cccn([C@H]3[C@@H]4COC[C@@H]43)c2=O)nc2c(C(=O)NC3CC[C@H]3F)cnn12 (stereo partly drawn) [Compound I-203] | < 0.1
CNc1cc(-c2cnc3n(CC(C)(C)O)cccc2-3)nc2c(C(=O)N[C@H]3CC[C@@H]3OC)cnn12 [Compound I-983] | < 0.1
CO[C@H]1CC[C@@H]1NC(=O)c1cnn2c(N)cc(-c3cnc4n([C@@H]5COC[C@H]5OC)cccc3-4)nc12 [Compound I-1010] | 0.1 to 0.5
CNc1cc(-c2cn([C@@H]3COC[C@@H]3F)c3ncccc23)nc2c(C(=O)N[C@@H]3COC[C@@H]3O)cnn12 [Compound I-730] | 0.1 to 0.5
CNc1cc(Nc2cccn(C3CCN(CCF)CC3)c2=O)nc2c(C(=O)N[C@H]3CC[C@@H]3F)cnn12 [Compound I-237] | < 0.1
CNc1cc(-c2cn(C3CCCC3)c3ncccc23)nc2c(C(=O)N[C@@H]3CCC3(F)F)cnn12 [Compound I-681] | < 0.1
CNc1cc(Nc2cccn([C@H]3[C@@H]4COC[C@@H]43)c2=O)nc2c(C(=O)NC3CC[C@@H]3F)cnn12 (stereo partly drawn) [Compound I-206] | < 0.1
CNc1cc(Nc2cccn(C3COC3)c2=O)nc2c(C(=O)N[C@@H]3C[C@@H]3F)cnn12 [Compound I-125] | < 0.1
CNc1cc(-c2cn([C@H]3COC[C@H]3F)c3ncccc23)nc2c(C(=O)N[C@H]3CC[C@@H]3OC)cnn12 [Compound I-625] | < 0.1
CNc1cc(Nc2cccn([C@H]3C[C@H](F)C3)c2=O)nc2c(C(=O)NC3CC[C@@H]3F)cnn12 (stereo partly drawn) [Compound I-164] | < 0.1
CNc1ccc(-c2cc(NC)n3ncc(C(=O)NC4CC[C@H]4F)c3n2)n2ccnc12 (stereo partly drawn) [Compound I-483] | < 0.1
CNc1cc(-c2cn([C@H]3CCOC[C@H]3OC)c3ncccc23)nc2c(C(=O)N[C@H]3CC[C@@H]3OC)cnn12 [Compound I-666] | < 0.1

SMILES | IC50 [µM]
CNc1cc(Nc2cccn([C@@H]3CCOC[C@@H]3OC)c2=O)nc2c(C(=O)NC3CCC3(F)F)cnn12 (stereo partly drawn) [Compound I-336] | < 0.1
CNc1cc(Nc2cccn([C@H]3CCCOC3)c2=O)nc2c(C(=O)N[C@H]3CC[C@@H]3F)cnn12 [Compound I-198] | < 0.1
CNc1cc(-c2cnc3n([C@H]4CCOC4)cccc2-3)nc2c(C(=O)N[C@H]3CC[C@@H]3OC)cnn12 [Compound I-1002] | < 0.1
CNc1cc(Nc2cccn([C@H]3C[C@H](OC)C3)c2=O)nc2c(C(=O)NC3CCC3(F)F)cnn12 (stereo partly drawn) [Compound I-292] | < 0.1
CNc1cc(-c2cn([C@@H]3COC[C@H]3OC)c3ccccc23)nc2c(C(=O)N[C@@H]3CC[C@H]3OC)cnn12 [Compound I-746] | < 0.1
CNc1cc(-c2cn([C@@H]3CCOC[C@@H]3OC)c3ncccc23)nc2c(C(=O)N[C@H]3CC[C@@H]3OC)cnn12 [Compound I-669] | < 0.1
CNc1cc(-c2cn([C@H]3C[C@@H](O)C3)c3ncccc23)nc2c(C(=O)N[C@H]3CC[C@@H]3F)cnn12 [Compound I-511] | < 0.1
CNc1cc(-c2cn([C@@H]3COC[C@@H]3F)c3ncccc23)nc2c(C(=O)NC3CC[C@@H]3OC)cnn12 (stereo partly drawn) [Compound I-621] | < 0.1
CNc1cc(-c2cnc3n([C@@H]4COC[C@H]4O)cccc2-3)nc2c(C(=O)N[C@H]3CCC3(F)F)cnn12 [Compound I-902] | < 0.1
CNc1cc(-c2cn(CCOC)c3ncccc23)nc2c(C(=O)N[C@H]3CC[C@@H]3OC)cnn12 [Compound I-923] | < 0.1
CNc1cc(-c2cn([C@@H]3CC(=O)N(C4CCOCC4)C3)c3ncccc23)nc2c(C(=O)N[C@H]3CC[C@@H]3OC)cnn12 [Compound I-1028] | 0.1 to 0.5
CNc1cc(-c2cnc3n([C@@H]4COC[C@H]4O)cccc2-3)nc2c(C(=O)N[C@@H]3CC[C@H]3OC)cnn12 [Compound I-876] | < 0.1
CO[C@@H]1CC[C@H]1NC(=O)c1cnn2c3c(c(Nc4cccn(C(C)C)c4=O)nc12)OCCN3 [Compound I-760] | < 0.1
CNc1cc(Nc2cccn([C@@H]3CCC[C@@H](OC)C3)c2=O)nc2c(C(=O)N[C@H]3CC[C@@H]3F)cnn12 [Compound I-228] | < 0.1
CNc1cc(Nc2cccn([C@@H]3CCCOC3)c2=O)nc2c(C(=O)N[C@@H]3CC[C@H]3F)cnn12 [Compound I-196] | < 0.1
CNc1cc(-c2cn([C@H]3CCC4(C3)OCCO4)c3ncccc23)nc2c(C(=O)NC3CC[C@@H]3OC)cnn12 (stereo partly drawn) [Compound I-671] | < 0.1
CNc1cc(-c2cn([C@H]3CN(C)C[C@@H]3F)c3ncccc23)nc2c(C(=O)N[C@H]3CC[C@@H]3OC)cnn12 [Compound I-640] | < 0.1
CNc1cc(Nc2cccn([C@@H]3CCOC[C@@H]3OC)c2=O)nc2c(C(=O)N[C@@H]3CCC3(F)F)cnn12 [Compound I-338] | < 0.1
CNc1cc(Nc2cccn(-c3ncccc3F)c2=O)nc2c(C(=O)N[C@@H]3CC[C@H]3OC)cnn12 [Compound I-266] | < 0.1

Same assay, conditions: 0.5 h, 1.7 ng/mL IL-12 for 30 minutes

SMILES | IC50 [µM]
CNc1cc(Nc2cccn([C@@H]3CC[C@H]3OC)c2=O)nc2c(C(=O)N[C@H]3CC[C@@H]3O)cnn12 [Compound I-20, N-((1S,2S)-2-Hydroxycyclobutyl)-5-((1-((1R,2R)-2-methoxycyclobutyl)-2-oxo-1,2-dihydropyridin-3-yl)amino)-7-(methylamino)pyrazolo[1,5-a]pyrimidine-3-carboxamide] | < 0.1
CNc1cc(-c2cn(CC(=O)N(C)C)c3ncccc23)nc2c(C(=O)NC3CC[C@@H]3OC)cnn12 (stereo in doubt) [Compound I-920, 5-(1-(2-(dimethylamino)-2-oxoethyl)-1H-pyrrolo[2,3-b]pyridin-3-yl)-N-(2-methoxycyclobutyl)-7-(methylamino)pyrazolo[1,5-a]pyrimidine-3-carboxamide] | 0.1 to 0.5
O=C(NC1CCC1(F)F)c1cnn2c3c(c(-c4cn([C@H]5C[C@H](O)C5)c5ncccc45)nc12)OCCN3 (stereo partly drawn) [Compound I-775, N-(2,2-Difluorocyclobutyl)-5-(1-((1r,3S)-3-hydroxycyclobutyl)-1H-pyrrolo[2,3-b]pyridin-3-yl)-2,3-dihydro-1H-pyrazolo[5′,1′:2,3]pyrimido [5,4-b][1,4]oxazine-7-carboxamide] | < 0.1
